Test results reported in patent US20230416248A1, “COMPOUNDS AND USES THEREOF” (Foghorn Therapeutics Inc., priority 2020, published 2023).
Where two headings read alike, the source gives them in different places.

Legend:
[1] = target: T1, BRG-1 (Homo sapiens, UniProt P51532); experiment: ATPase catalytic activity of BRG-1, ADP-Glo in vitro biochemical assay; settings: 30 nM BRG-1, 400 μM ATP, read-out: BRG1 IC50
T1 construct: made in house; host or cells: High Five insect cells
Summary of the method: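 Biochemical ADP-Glo assay, BRG-1. Post-reaction: ATP depletion reagent, 40 min RT; ADP→ATP conversion/detection reagent, 60 min RT; luminescence read on plate luminometer.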

[2] = target: T2, BRM (Homo sapiens, UniProt P51531); experiment: ATPase catalytic activity of BRM, ADP-Glo in vitro biochemical assay; settings: for IC50: 30 nM BRM, 400 μM ATP; for Ratio* (BRG1 IC50 (μM) divided by BRM IC50 (μM)): selectivity ratio BRG1 IC50 / BRM IC50
T2 construct: made in house; host or cells: High Five insect cells
Summary of the method: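 Recombinant BRM (30 nM) hydrolysed 400 μM ATP with 20 nM salmon sperm DNA in pH 8 Tris buffer containing 20 mM MgCl2, 50 mM NaCl, 0.1% Tween-20 and 1 mM DTT, 1 h at room temperature. ADP formed was quantified by ADP-Glo luminescence.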

[3] = ATPase catalytic activity, ADP-Glo

T1 sequence (P51532 whole entry): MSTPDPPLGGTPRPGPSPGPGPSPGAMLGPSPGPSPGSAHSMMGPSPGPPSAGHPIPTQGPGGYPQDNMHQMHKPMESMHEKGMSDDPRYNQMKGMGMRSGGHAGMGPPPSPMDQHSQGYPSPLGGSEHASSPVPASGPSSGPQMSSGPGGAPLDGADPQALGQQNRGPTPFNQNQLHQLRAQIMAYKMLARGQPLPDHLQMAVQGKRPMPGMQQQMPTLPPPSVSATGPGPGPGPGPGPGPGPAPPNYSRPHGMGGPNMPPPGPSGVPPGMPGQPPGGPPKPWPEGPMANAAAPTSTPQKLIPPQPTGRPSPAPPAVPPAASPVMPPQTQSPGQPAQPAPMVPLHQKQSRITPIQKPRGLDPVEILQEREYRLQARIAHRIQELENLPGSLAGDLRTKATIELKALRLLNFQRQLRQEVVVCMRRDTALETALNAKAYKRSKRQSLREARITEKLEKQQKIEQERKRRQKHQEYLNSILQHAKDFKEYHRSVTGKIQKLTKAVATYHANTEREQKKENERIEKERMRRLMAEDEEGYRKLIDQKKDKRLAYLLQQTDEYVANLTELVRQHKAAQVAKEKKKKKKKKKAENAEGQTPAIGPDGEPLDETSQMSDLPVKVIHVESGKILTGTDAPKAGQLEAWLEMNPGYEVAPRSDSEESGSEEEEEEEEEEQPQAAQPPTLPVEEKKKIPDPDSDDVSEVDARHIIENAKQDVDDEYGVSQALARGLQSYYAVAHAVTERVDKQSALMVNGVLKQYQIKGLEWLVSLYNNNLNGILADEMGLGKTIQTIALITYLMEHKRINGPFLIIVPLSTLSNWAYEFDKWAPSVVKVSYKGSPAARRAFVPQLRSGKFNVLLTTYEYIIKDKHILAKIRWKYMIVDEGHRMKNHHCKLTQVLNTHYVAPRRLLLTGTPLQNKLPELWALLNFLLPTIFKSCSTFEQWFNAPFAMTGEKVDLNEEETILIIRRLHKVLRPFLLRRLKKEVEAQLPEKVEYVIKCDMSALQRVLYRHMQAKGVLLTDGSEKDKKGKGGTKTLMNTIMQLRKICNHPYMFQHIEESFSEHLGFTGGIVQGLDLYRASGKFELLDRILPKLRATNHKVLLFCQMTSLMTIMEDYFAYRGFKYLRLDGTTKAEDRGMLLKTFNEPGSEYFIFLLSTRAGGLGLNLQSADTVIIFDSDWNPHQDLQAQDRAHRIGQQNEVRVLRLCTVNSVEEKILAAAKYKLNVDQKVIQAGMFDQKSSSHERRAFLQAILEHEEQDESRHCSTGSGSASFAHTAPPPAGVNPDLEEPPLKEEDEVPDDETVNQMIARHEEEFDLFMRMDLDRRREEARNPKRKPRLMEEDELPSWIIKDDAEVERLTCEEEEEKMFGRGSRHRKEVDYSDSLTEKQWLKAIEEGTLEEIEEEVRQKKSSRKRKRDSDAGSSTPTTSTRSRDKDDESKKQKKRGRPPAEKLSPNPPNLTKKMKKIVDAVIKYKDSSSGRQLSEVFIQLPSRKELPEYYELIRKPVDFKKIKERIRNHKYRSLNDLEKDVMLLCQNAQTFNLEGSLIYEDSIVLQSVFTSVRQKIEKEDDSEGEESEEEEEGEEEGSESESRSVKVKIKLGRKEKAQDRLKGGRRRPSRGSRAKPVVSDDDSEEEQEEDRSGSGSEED
T2 sequence (P51531 whole entry): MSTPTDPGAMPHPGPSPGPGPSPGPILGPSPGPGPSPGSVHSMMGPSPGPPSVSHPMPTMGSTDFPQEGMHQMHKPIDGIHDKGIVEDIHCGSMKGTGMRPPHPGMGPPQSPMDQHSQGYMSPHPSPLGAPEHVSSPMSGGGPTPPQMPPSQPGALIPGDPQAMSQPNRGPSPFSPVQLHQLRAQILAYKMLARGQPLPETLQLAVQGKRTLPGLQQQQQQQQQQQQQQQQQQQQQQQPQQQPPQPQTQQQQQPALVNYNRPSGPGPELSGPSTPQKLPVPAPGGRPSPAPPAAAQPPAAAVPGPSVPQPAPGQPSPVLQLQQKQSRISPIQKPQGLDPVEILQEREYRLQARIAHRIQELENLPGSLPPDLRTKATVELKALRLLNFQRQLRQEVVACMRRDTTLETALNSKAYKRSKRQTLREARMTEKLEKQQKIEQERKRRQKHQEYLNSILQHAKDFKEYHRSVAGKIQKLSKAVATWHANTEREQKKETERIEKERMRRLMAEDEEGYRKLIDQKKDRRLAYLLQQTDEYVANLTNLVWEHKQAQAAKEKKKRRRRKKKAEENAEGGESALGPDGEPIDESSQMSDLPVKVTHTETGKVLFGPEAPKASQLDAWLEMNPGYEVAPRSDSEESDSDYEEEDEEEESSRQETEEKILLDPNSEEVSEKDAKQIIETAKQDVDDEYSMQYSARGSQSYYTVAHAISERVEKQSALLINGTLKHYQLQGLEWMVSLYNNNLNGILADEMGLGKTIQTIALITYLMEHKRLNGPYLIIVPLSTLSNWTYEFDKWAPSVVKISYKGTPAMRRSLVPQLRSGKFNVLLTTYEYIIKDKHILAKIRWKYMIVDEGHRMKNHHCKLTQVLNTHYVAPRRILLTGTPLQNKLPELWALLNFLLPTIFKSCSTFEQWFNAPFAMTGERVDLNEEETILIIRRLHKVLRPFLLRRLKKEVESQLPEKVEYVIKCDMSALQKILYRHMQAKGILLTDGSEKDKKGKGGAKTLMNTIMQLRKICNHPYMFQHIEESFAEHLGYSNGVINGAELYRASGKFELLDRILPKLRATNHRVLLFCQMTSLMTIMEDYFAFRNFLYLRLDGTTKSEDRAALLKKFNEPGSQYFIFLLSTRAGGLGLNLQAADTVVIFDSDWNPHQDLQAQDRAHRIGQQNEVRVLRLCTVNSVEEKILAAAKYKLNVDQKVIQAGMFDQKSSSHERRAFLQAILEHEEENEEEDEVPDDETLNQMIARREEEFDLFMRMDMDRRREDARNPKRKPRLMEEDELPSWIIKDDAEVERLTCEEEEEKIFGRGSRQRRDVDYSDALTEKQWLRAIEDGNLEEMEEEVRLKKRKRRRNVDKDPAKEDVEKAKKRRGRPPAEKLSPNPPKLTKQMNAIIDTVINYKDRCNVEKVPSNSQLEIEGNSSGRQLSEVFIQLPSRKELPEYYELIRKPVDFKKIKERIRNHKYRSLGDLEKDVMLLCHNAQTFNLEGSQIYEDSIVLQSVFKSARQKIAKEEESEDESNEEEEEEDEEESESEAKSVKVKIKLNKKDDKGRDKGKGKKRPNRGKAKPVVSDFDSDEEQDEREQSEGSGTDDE

Row | IC50 [1, 3] [nM] | IC50 [2, 3] [nM] | Ratio* ([2]; ratio of BRG1 IC50 to BRM IC50) | IC50 ([1]; ADP-Glo ATPase assay) [nM] | IC50 ([2]; ADP-Glo ATPase assay) [nM] | Ratio* ([2]; ratio BRG1 IC50 / BRM IC50) | Ratio* (BRG1 IC50 (μM) divided by BRM IC50 (μM)) [2] | SMILES
1 | 25 | 4.6 | 5.44 | – | – | – | – | O=C(NCc1cc2nc(N3CCCc4c(OC5COC5)cccc43)ccc2cn1)c1ccc2c(c1)S(=O)(=O)CCOC2 [Compound 555]
2 | 1110 | 39.2 | 28.40 | – | – | – | – | C[C@@H]1CN(c2cccc(-c3ccc4cnc(CNC(=O)c5ccc6c(c5)S(=O)(=O)[C@@H](C)COC6)cc4n3)c2F)C[C@H](C)O1 [Compound 609]
3 | – | – | – | 646 | 15.8 | 40.93 | – | O=C(NCc1cc2nc(N3CCOc4c(F)cc(C5CC5)nc43)ccc2cn1)c1ccc2c(c1)S(=O)(=O)CCOC2 [Compound 804]
4 | 195 | 16 | 12.19 | – | – | – | – | O=C(NCc1cc2nc(-c3cccc(N4CC[C@@H]5C[C@@H]5C4)n3)ccc2cn1)c1ccc2c(c1)S(=O)(=O)CCOC2 [Compound 321]
5 | 1910 | 215 | 8.88 | – | – | – | – | O=C(NCc1cc2nc(N3CCCc4ccc(OCC(F)F)nc43)ccc2cn1)c1ccc2c(c1)S(=O)(=O)CCOC2 [Compound 601]
6 | 210 | 12.9 | 16.27 | – | – | – | – | COC[C@@H]1C[C@@H]1N(C)c1cccc(-c2ccc3cnc(CNC(=O)c4ccc5c(c4)S(=O)(=O)CCOC5)cc3n2)n1 [Compound 413]
7 | – | – | – | 1090 | 35.2 | – | 30.99 | O=C(NCc1cc2nc(-c3cccc([C@H]4CC4(F)F)n3)ccc2cn1)c1ccc2c(c1)S(=O)(=O)CCOC2 [Compound 267]
8 | 162 | 11.7 | 13.88 | – | – | – | – | O=C(NCc1cc2nc(-c3cccc([C@@]45CCOCC4C5)n3)ccc2cn1)c1ccc2c(c1)S(=O)(=O)CCOC2 (stereo partly drawn) [Compound 378]
9 | 84.9 | 6 | 14.09 | – | – | – | – | O=C(NCc1cc2nc(N3CCCc4ccc(OC5COC5)cc43)ccc2cn1)c1ccc2c(c1)S(=O)(=O)CCOC2 [Compound 692]
10 | 211 | 21.9 | 9.67 | – | – | – | – | CCN(c1cccc(-c2ccc3cnc(CNC(=O)c4ccc5c(c4)S(=O)(=O)CCOC5)cc3n2)n1)C1CC1 [Compound 337]
11 | – | – | – | 1170 | 38.5 | 30.25 | – | O=C(NCc1cc2nc(N3CCOc4cc(Cl)cc(F)c43)ccc2cn1)c1cc(F)c2c(c1)S(=O)(=O)CCOC2 [Compound 773]
12 | – | – | – | 4110 | 122 | 33.67 | – | O=C(NCc1cc2nc(N3CCOc4ccc(C5(F)CC5(F)F)nc43)ccc2cn1)c1ccc2c(c1)S(=O)(=O)CCOC2 (stereo not drawn) [Compound 795]
13 | 1670 | 114 | 14.67 | – | – | – | – | Cc1ccc2c(n1)N(c1ccc3cnc(CNC(=O)c4ccc5c(c4)S(=O)(=O)CCCO5)cc3n1)CCC2 [Compound 538]
14 | – | – | – | 2660 | 230 | – | 11.55 | O=C(NCc1cc2nc(-c3cccc(C4(F)COC4)n3)ccc2cn1)c1ccc2c(c1)S(=O)(=O)CCOC2 [Compound 142]
15 | – | – | – | 5000 | 427 | – | 11.71 | C[C@@H]1CN(c2cccc(-c3ccc4cnc(CNC(=O)c5cccc(S(C)(=O)=O)c5Cl)cc4n3)n2)C[C@H](C)O1 [Compound 82]
16 | 603 | 20.8 | 29.03 | – | – | – | – | O=C(NCc1cc2nc(-c3cccc(C4CC4)n3)cnc2cn1)c1cc(F)c2c(c1)S(=O)(=O)CCOC2 [Compound 424]
17 | 480 | 45.7 | 10.51 | – | – | – | – | CN(CC1(F)COC1)c1cccc(-c2ccc3cnc(CNC(=O)c4ccc5c(c4)S(=O)(=O)CCOC5)cc3n2)n1 [Compound 314]
18 | – | – | – | 4890 | 351 | – | 13.91 | N=S1(=O)CCOCc2ccc(C(=O)NCc3cc4nc(-c5cncc(C6CC6)n5)ccc4cn3)cc21 (stereo not drawn) [Compound 286]
19 | 76.3 | 6.1 | 12.41 | – | – | – | – | CO[C@H]1C[C@H]1N(C)c1cccc(-c2ccc3cnc(CNC(=O)c4ccc5c(c4)S(=O)(=O)CCOC5)cc3n2)n1 [Compound 534]
20 | – | – | – | 340 | 17.5 | – | 19.39 | CO[C@@H](C)CN(C)c1cccc(-c2ccc3cnc(CNC(=O)c4ccc5c(c4)S(=O)(=O)CCOC5)cc3n2)n1 [Compound 64]
21 | – | – | – | 2140 | 166 | – | 12.89 | O=C(NCc1cc2nc(N3CCCc4cnccc43)ccc2cn1)c1ccc2c(c1)S(=O)(=O)CCOC2 [Compound 90]
22 | – | – | – | 236 | 23.5 | – | 10.05 | CN(CC(F)F)c1cccc(-c2ccc3cnc(CNC(=O)c4ccc5c(c4)S(=O)(=O)CCOC5)cc3n2)n1 [Compound 115]

Row | IC50 [1, 3] [nM] | IC50 [2, 3] [nM] | Ratio* ([2]; ratio of BRG1 IC50 to BRM IC50) | IC50 ([1]; ADP-Glo ATPase assay) [nM] | IC50 ([2]; ADP-Glo ATPase assay) [nM] | Ratio* ([2]; ratio BRG1 IC50 / BRM IC50) | Ratio* (BRG1 IC50 (μM) divided by BRM IC50 (μM)) [2] | SMILES
23 | 63.9 | 5.3 | 12.09 | – | – | – | – | Cc1cnc2c(c1)OCCN2c1ccc2cnc(CNC(=O)c3cc(F)c4c(c3)S(=O)(=O)CCOC4)cc2n1 [Compound 550]
24 | – | – | – | 99.7 | 16.2 | – | 6.14 | CCO[C@@H]1CCOc2c(-c3ccc4cnc(CNC(=O)c5ccc6c(c5)S(=O)(=O)CCOC6)cc4n3)cccc21 [Compound 65]
25 | – | – | – | 2880 | 397 | 7.26 | – | COCCN1CCc2ccc(-c3ccc4cnc(CNC(=O)c5ccc6c(c5)S(=O)(=O)CCOC6)cc4n3)nc2C1 [Compound 772]
26 | 1060 | 106 | 9.95 | – | – | – | – | COc1ccc2c(n1)N(c1ccc3cnc(CNC(=O)c4ccc5c(c4)S(=O)(=O)CCOC5)cc3n1)CCC2 [Compound 568]
27 | – | – | – | 5000 | 200 | – | 25.03 | Cc1c(Cl)cc(C(=O)NCc2cc3nc(-c4cncc(C5CC5)n4)ccc3cn2)cc1S(C)(=O)=O [Compound 269]
28 | 62.8 | 5.8 | 10.83 | – | – | – | – | Cc1cnc2c(c1)OCCN2c1ccc2cnc(CNC(=O)c3ccc4c(c3)S(=O)(=O)CCOC4)cc2n1 [Compound 491]
29 | – | – | – | 428 | 13.2 | 32.33 | – | C[C@H]1COCc2ccc(C(=O)NCc3cc4nc(N5CCOc6cc(F)cnc65)ccc4cn3)cc2S1(=O)=O [Compound 738]
30 | – | – | – | 2670 | 109 | – | 24.40 | O=C(NCc1cc2nc(-c3cncc(C4CC4)n3)ccc2cn1)c1cc(Cl)c2c(c1)S(=O)(=O)CCOC2 [Compound 187]
31 | 213 | 28.6 | 7.45 | – | – | – | – | CC1CCN(c2ccc3cnc(CNC(=O)c4ccc5c(c4)S(=O)(=O)CCOC5)cc3n2)c2ncccc21 (stereo not drawn) [Compound 504]
32 | – | – | – | 43.5 | 8.7 | 4.99 | – | CN(c1cnc2c(c1)OCCN2c1ccc2cnc(CNC(=O)c3ccc4c(c3)S(=O)(=O)CCOC4)cc2n1)C1CC1 [Compound 782]
33 | 247 | 12.1 | 20.44 | – | – | – | – | C[C@H]1COCc2ccc(C(=O)NCc3cc4nc(N5CCOc6cc(Cl)cnc65)ccc4cn3)cc2S1(=O)=O [Compound 646]
34 | 82.3 | 5.4 | 15.34 | – | – | – | – | C[C@H]1CN(c2cccc(-c3ccc4cnc(CNC(=O)c5ccc(Cl)c(S(C)(=O)=O)c5)cc4n3)n2)CC[C@@H]1O [Compound 575]
35 | – | – | – | 169 | 13 | – | 12.97 | C[C@@H]1CN(c2cccc(-c3cnc4cnc(CNC(=O)c5ccc6c(c5)S(=O)(=O)CCOC6)cc4n3)c2)C[C@H](C)O1 [Compound 141]
36 | 2370 | 155 | 15.23 | – | – | – | – | C[C@@H]1CN(c2cccc(-c3ccc4cnc(CNC(=O)c5ccc6c(c5)S(=O)(=O)CC[C@@H](C(F)F)O6)cc4n3)n2)C[C@H](C)O1 [Compound 581]
37 | 283 | 22 | 12.86 | – | – | – | – | COC[C@@H]1C[C@H]1N(C)c1cccc(-c2ccc3cnc(CNC(=O)c4ccc5c(c4)S(=O)(=O)CCOC5)cc3n2)n1 [Compound 311]
38 | 42.6 | 4.2 | 10.13 | – | – | – | – | Cc1ccc2c(c1)OCCN2c1ccc2cnc(CNC(=O)c3ccc4c(c3)S(=O)(=O)CCOC4)cc2n1 [Compound 420]
39 | – | – | – | 135 | 13.7 | 9.88 | – | O=C(NCc1cc2nc(N3CCCc4cc5c(cc43)OCO5)ccc2cn1)c1ccc2c(c1)S(=O)(=O)CCOC2 [Compound 792]
40 | – | – | – | 17 | 4.8 | – | 3.52 | C[C@@H]1CN(c2cccc(-c3ccc4cnc(CNC(=O)c5ccc6c(c5)S(=O)(=O)CCCC6)cc4n3)n2)C[C@H](C)O1 [Compound 91]
41 | 178 | 16.4 | 10.89 | – | – | – | – | CN1CCN(c2ccc3cnc(CNC(=O)c4ccc5c(c4)S(=O)(=O)CCOC5)cc3n2)c2ncccc21 [Compound 442]
42 | – | – | – | 2250 | 122 | 18.41 | – | CS(=O)(=O)c1cc(C(=O)NCc2cc3nc(N4CCCc5cc(C6CC6)cnc54)ccc3cn2)cnc1C(F)F [Compound 724]
43 | 780 | 102 | 7.66 | – | – | – | – | COC[C@@H]1COc2c(-c3ccc4cnc(CNC(=O)c5ccc6c(c5)S(=O)(=O)CCOC6)cc4n3)cccc2N1C [Compound 639]
44 | – | – | – | 510 | 71.6 | – | 7.12 | O=C(NCc1cc2nc(-c3cccc4c3OCCN4CC(F)F)ccc2cn1)c1ccc2c(c1)S(=O)(=O)CCOC2 [Compound 131]
